In article PMC6414696 (mBio, 2019):
≈ marks a conversion by molar mass, not a printed value. Read-outs that look alike come from different tables or passages of the source.

How the values were obtained:
A. baumannii ARC5955 [1] = conditions: A. baumannii ARC5955 carrying blaTEM-1, blaADC-82, blaOXA-23, blaOXA-66; cited from earlier work
A. baumannii isolates = conditions: panel of A. baumannii isolates in a previous study; cited from earlier work
[2] = test system: A. baumannii clinical isolates; test: microbe, parasite or virus in culture; format: cell-based, Acinetobacter baumannii; conditions: for MIC: Acinetobacter baumannii
OXA-66 β-lactamase = OXA-66 β-lactamase (Acinetobacter baumannii, UniProt Q58XD2); test: β-Lactamase steady-state kinetic analysis, OXA-66; format: biochemical, A. baumannii; conditions: OXA-66; data not shown
[3] = test system: A. baumannii (ATCC 17978); format: cell-based, Acinetobacter baumannii; conditions: ETX2514 at 4 mg/liter in combination
A. nosocomialis (M2) = format: cell-based, Acinetobacter nosocomialis; conditions: ETX2514 at 4 mg/liter in combination
A. baumannii ARC5955 [4] = test: Neutropenic murine thigh infection model; format: in vivo; conditions: thigh tissue, CD-1 mice, 24 h after initiation of therapy, 75 mg/kg SC/q3h; for Change in log10 CFU/g: 75 mg/kg

Sequence of OXA-66 β-lactamase (Q58XD2 entry or part of it): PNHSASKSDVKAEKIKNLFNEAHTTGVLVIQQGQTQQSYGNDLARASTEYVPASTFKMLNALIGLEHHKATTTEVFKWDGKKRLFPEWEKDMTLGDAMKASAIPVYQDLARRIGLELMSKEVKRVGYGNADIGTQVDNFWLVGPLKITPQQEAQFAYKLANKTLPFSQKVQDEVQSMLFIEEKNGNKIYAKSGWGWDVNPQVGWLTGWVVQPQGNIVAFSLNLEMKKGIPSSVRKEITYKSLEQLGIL

CC1(C)[C@H](C(=O)O)N2C(=O)C[C@H]2S1(=O)=O [Sulbactam]
MIC (A. baumannii ARC5955 [1]): 64 mg/L (≈ 274 µM)
MIC90 (A. baumannii isolates): 64 mg/L (≈ 274 µM)
MIC90 ([2]; 72 WRAMC A. baumannii isolates, ETX2514 at 4 mg/liter in combination): 32 mg/L
isolates resistant (MIC ≥ 16 mg/liter) ([2]; 72 WRAMC isolates (34/72)): 47%
MIC ([2]; strain AB001, ETX2514 at 4 mg/liter in combination): 16 µg/mL
MIC ([2]; strain AB002, ETX2514 at 4 mg/liter in combination): 8 µg/mL
MIC ([2]; strain AB003, ETX2514 at 4 mg/liter in combination): 8 µg/mL
MIC ([2]; strain AB004, ETX2514 at 4 mg/liter in combination): 4 µg/mL
MIC ([2]; strain AB005, ETX2514 at 4 mg/liter in combination): 4 µg/mL
MIC ([2]; strain AB006, ETX2514 at 4 mg/liter in combination): 4 µg/mL
MIC ([2]; strain AB007, ETX2514 at 4 mg/liter in combination): 4 µg/mL
MIC ([2]; strain AB008, ETX2514 at 4 mg/liter in combination): 4 µg/mL
MIC ([2]; strain AB009, ETX2514 at 4 mg/liter in combination): 4 µg/mL
MIC ([2]; strain AB010, ETX2514 at 4 mg/liter in combination): 4 µg/mL
MIC ([2]; strain AB011, ETX2514 at 4 mg/liter in combination): 8 µg/mL
MIC ([2]; strain AB012, ETX2514 at 4 mg/liter in combination): 4 µg/mL
MIC ([2]; strain AB013, ETX2514 at 4 mg/liter in combination): 4 µg/mL
MIC ([2]; strain AB014, ETX2514 at 4 mg/liter in combination): 4 µg/mL
MIC ([2]; strain AB015, ETX2514 at 4 mg/liter in combination): 4 µg/mL
MIC ([2]; strain AB016, ETX2514 at 4 mg/liter in combination): 4 µg/mL
MIC ([2]; strain AB017, ETX2514 at 4 mg/liter in combination): 32 µg/mL
MIC ([2]; strain AB018, ETX2514 at 4 mg/liter in combination): 64 µg/mL
MIC ([2]; strain AB019, ETX2514 at 4 mg/liter in combination): 16 µg/mL
MIC ([2]; strain AB020, ETX2514 at 4 mg/liter in combination): 16 µg/mL
MIC ([2]; strain AB021, ETX2514 at 4 mg/liter in combination): 16 µg/mL
MIC ([2]; strain AB022, ETX2514 at 4 mg/liter in combination): 16 µg/mL
MIC ([2]; strain AB023, ETX2514 at 4 mg/liter in combination): 16 µg/mL
MIC ([2]; strain AB024, ETX2514 at 4 mg/liter in combination): 16 µg/mL
MIC ([2]; strain AB025, ETX2514 at 4 mg/liter in combination): 16 µg/mL
MIC ([2]; strain AB026, ETX2514 at 4 mg/liter in combination): 16 µg/mL
MIC ([2]; strain AB027, ETX2514 at 4 mg/liter in combination): 16 µg/mL
MIC ([2]; strain AB028, ETX2514 at 4 mg/liter in combination): 16 µg/mL
MIC ([2]; strain AB029, ETX2514 at 4 mg/liter in combination): 16 µg/mL
MIC ([2]; strain AB030, ETX2514 at 4 mg/liter in combination): 16 µg/mL
MIC ([2]; strain AB031, ETX2514 at 4 mg/liter in combination): 16 µg/mL
MIC ([2]; strain AB032, ETX2514 at 4 mg/liter in combination): 16 µg/mL
MIC ([2]; strain AB033, ETX2514 at 4 mg/liter in combination): 64 µg/mL
MIC ([2]; strain AB034, ETX2514 at 4 mg/liter in combination): 16 µg/mL
MIC ([2]; strain AB035, ETX2514 at 4 mg/liter in combination): 16 µg/mL
MIC ([2]; strain AB036, ETX2514 at 4 mg/liter in combination): 16 µg/mL
MIC ([2]; strain AB037, ETX2514 at 4 mg/liter in combination): 64 µg/mL
MIC ([2]; strain AB038, ETX2514 at 4 mg/liter in combination): 16 µg/mL
MIC ([2]; strain AB039, ETX2514 at 4 mg/liter in combination): 4 µg/mL
MIC ([2]; strain AB040, ETX2514 at 4 mg/liter in combination): 32 µg/mL
MIC ([2]; strain AB041, ETX2514 at 4 mg/liter in combination): 16 µg/mL
MIC ([2]; strain AB042, ETX2514 at 4 mg/liter in combination): 4 µg/mL
MIC ([2]; strain AB043, ETX2514 at 4 mg/liter in combination): 4 µg/mL
MIC ([2]; strain AB044, ETX2514 at 4 mg/liter in combination): 4 µg/mL
MIC ([2]; strain AB045, ETX2514 at 4 mg/liter in combination): 2 µg/mL
MIC ([2]; strain AB046, ETX2514 at 4 mg/liter in combination): 4 µg/mL
MIC ([2]; strain AB047, ETX2514 at 4 mg/liter in combination): 4 µg/mL
MIC ([2]; strain AB048, ETX2514 at 4 mg/liter in combination): 4 µg/mL
MIC ([2]; strain AB049, ETX2514 at 4 mg/liter in combination): 4 µg/mL
MIC ([2]; strain AB050, ETX2514 at 4 mg/liter in combination): 4 µg/mL
MIC ([2]; strain AB051, ETX2514 at 4 mg/liter in combination): 2 µg/mL
MIC ([2]; strain AB052, ETX2514 at 4 mg/liter in combination): 64 µg/mL
MIC ([2]; strain AB053, ETX2514 at 4 mg/liter in combination): 32 µg/mL
MIC ([2]; strain AB054, ETX2514 at 4 mg/liter in combination): 64 µg/mL
MIC ([2]; strain AB055, ETX2514 at 4 mg/liter in combination): 16 µg/mL
MIC ([2]; strain AB056, ETX2514 at 4 mg/liter in combination): 8 µg/mL
MIC ([2]; strain AB057, ETX2514 at 4 mg/liter in combination): 16 µg/mL
MIC ([2]; strain AB058, ETX2514 at 4 mg/liter in combination): 32 µg/mL
MIC ([2]; strain AB059, ETX2514 at 4 mg/liter in combination): 32 µg/mL
MIC ([2]; strain AB060, ETX2514 at 4 mg/liter in combination): 8 µg/mL
MIC ([2]; strain AB061, ETX2514 at 4 mg/liter in combination): 8 µg/mL
MIC ([2]; strain AB062, ETX2514 at 4 mg/liter in combination): 8 µg/mL
MIC ([2]; strain AB063, ETX2514 at 4 mg/liter in combination): 32 µg/mL
MIC ([2]; strain AB064, ETX2514 at 4 mg/liter in combination): 8 µg/mL
MIC ([2]; strain AB065, ETX2514 at 4 mg/liter in combination): 8 µg/mL
MIC ([2]; strain AB066, ETX2514 at 4 mg/liter in combination): 4 µg/mL
MIC ([2]; strain AB067, ETX2514 at 4 mg/liter in combination): 4 µg/mL
MIC ([2]; strain AB068, ETX2514 at 4 mg/liter in combination): 4 µg/mL
MIC ([2]; strain AB069, ETX2514 at 4 mg/liter in combination): 4 µg/mL
MIC ([2]; strain AB070, ETX2514 at 4 mg/liter in combination): 32 µg/mL
MIC ([2]; strain AB071, ETX2514 at 4 mg/liter in combination): 8 µg/mL
MIC ([2]; strain AB072, ETX2514 at 4 mg/liter in combination): 4 µg/mL
MIC ([2]; strain CCF 1MR, carbapenem resistant, ETX2514 at 4 mg/liter in combination): 32 µg/mL
MIC ([2]; strain CCF 2MR, carbapenem resistant, ETX2514 at 4 mg/liter in combination): 16 µg/mL
MIC ([2]; strain CCF 3MR, carbapenem resistant, ETX2514 at 4 mg/liter in combination): 4 µg/mL
MIC ([2]; strain CCF 4MR, carbapenem resistant, ETX2514 at 4 mg/liter in combination): 16 µg/mL
MIC ([2]; strain CCF 5MR, carbapenem resistant, ETX2514 at 4 mg/liter in combination): 16 µg/mL
MIC ([2]; strain CCF 6MR, carbapenem resistant, ETX2514 at 4 mg/liter in combination): 16 µg/mL
MIC ([2]; strain CCF 7MR, carbapenem resistant, ETX2514 at 4 mg/liter in combination): 32 µg/mL
MIC ([2]; strain CCF 8MR, carbapenem resistant, ETX2514 at 4 mg/liter in combination): 8 µg/mL
MIC ([2]; strain UH AB202, carbapenem resistant, ETX2514 at 4 mg/liter in combination): 16 µg/mL
MIC ([2]; strain UH AB461, carbapenem resistant, ETX2514 at 4 mg/liter in combination): 8 µg/mL
MIC ([2]; strain UH AB477, carbapenem resistant, ETX2514 at 4 mg/liter in combination): 16 µg/mL
MIC ([2]; strain UH AB487, carbapenem resistant, ETX2514 at 4 mg/liter in combination): 16 µg/mL
MIC ([2]; strain UH AB489, carbapenem resistant, ETX2514 at 4 mg/liter in combination): 16 µg/mL
MIC ([2]; strain UH AB490, carbapenem resistant, ETX2514 at 4 mg/liter in combination): 16 µg/mL
MIC ([2]; strain UH AB491, carbapenem resistant, ETX2514 at 4 mg/liter in combination): 16 µg/mL
MIC ([2]; strain UH AB636, carbapenem resistant, ETX2514 at 4 mg/liter in combination): 16 µg/mL
MIC ([2]; strain UH AB660, carbapenem resistant, ETX2514 at 4 mg/liter in combination): 16 µg/mL
MIC ([2]; strain UH AB667, carbapenem resistant, ETX2514 at 4 mg/liter in combination): 32 µg/mL
MIC ([2]; strain VA-432, carbapenem resistant, ETX2514 at 4 mg/liter in combination): 16 µg/mL
MIC ([2]; strain VA-433, carbapenem resistant, ETX2514 at 4 mg/liter in combination): 16 µg/mL
MIC ([2]; strain VA-434, carbapenem resistant, ETX2514 at 4 mg/liter in combination): 16 µg/mL
MIC ([2]; strain VA-435, carbapenem resistant, ETX2514 at 4 mg/liter in combination): 16 µg/mL
MIC ([2]; strain VA-436, carbapenem resistant, ETX2514 at 4 mg/liter in combination): 16 µg/mL
MIC ([2]; strain VA-437, carbapenem resistant, ETX2514 at 4 mg/liter in combination): 8 µg/mL
MIC ([2]; strain VA-438, carbapenem resistant, ETX2514 at 4 mg/liter in combination): 8 µg/mL
MIC ([2]; strain VA-505, carbapenem resistant, ETX2514 at 4 mg/liter in combination): 8 µg/mL
substrate quality for the enzyme (OXA-66 β-lactamase): very poor substrate
MIC ([3]; ATCC 17978 ΔadeB/ΔadeJ): 1 mg/L
MIC ([3]; ATCC 17978 ΔadeB): 1 mg/L
MIC ([3]; ATCC 17978 ΔadeJ): 1 mg/L
MIC (A. nosocomialis (M2); M2 WT): 2 mg/L
MIC (A. nosocomialis (M2); M2 ΔadeB/ΔadeJ): 2 mg/L
MIC (A. nosocomialis (M2); M2 ΔadeJ): 2 mg/L
Log10 CFU/g (A. baumannii ARC5955 [4]): 9.0 log10 CFU/g
Change in log10 CFU/g (A. baumannii ARC5955 [4]): 2.5 log10 CFU/g
Change in log10 CFU/g (A. baumannii ARC5955 [4]; listed as sulbactam): > 2 log10 CFU/g
